The source made the active and inactive calls.
Assays:
[1] = target: NAD-dependent protein deacylase sirtuin-5, mitochondrial (Homo sapiens, UniProt Q9NXA8); assay: blockers of sirtuin-5 peptide desuccinylation – biochemical, fluorescence imaging, cherry-pick, set 6, dose response (AID 720597)
[2] = MITF Orthogonal Assay: SK-MEL-5 CTG Assay Measured in Cell-Based System Using Plate Reader - 2084-02_Inhibitor_Dose_DryPowder_Activity_Set7.; type: functional
[3] = growth inhibition of MALME3 cells – cell-based, CellTiter-Glo luminescence, dry powder, set 5, orthogonal assay for MITF inhibitor project, dose response (AID 651584); type: functional; conditions: MALME-3
[4] = cytotoxicity in MITF-independent A375 cells – cell-based, CellTiter-Glo luminescence, dry powder, set 9, counter-screen for MITF modulator project, dose response (AID 651591); type: functional; conditions: A-375
[5] = MITF: Counter assay: A375 proliferation Measured in Cell-Based System Using Plate Reader - 2084-03_Inhibitor_Dose_DryPowder_Activity_Set8.; type: functional; conditions: A-375
[6] = inhibitors of TRPM1-promoter reporter in SK-MEL-5 – cell-based, luciferase, dry powder, set 9, MITF inhibitor project, dose response (AID 651588); type: functional
[7] = MITF Orthogonal Assay: MALME3 CTG Assay Measured in Cell-Based System Using Plate Reader - 2084-04_Inhibitor_Dose_DryPowder_Activity_Set6.; type: functional; conditions: MALME-3
[8] = inhibitors of TRPM1-promoter reporter in SK-MEL-5 – cell-based, luciferase, dry powder, set 8, MITF inhibitor project, dose response (AID 624430); type: functional
[9] = growth inhibition of SK-MEL-5 melanoma cells – cell-based, CellTiter-Glo luminescence, dry powder, set 8, orthogonal assay for MITF inhibitor project, dose response (AID 651586); type: functional
Phospholipase D2 [10] = target: T1, Phospholipase D2 (Homo sapiens, UniProt O14939); assay: Discovery of PLD2 inhibitors using the Purified Enzyme Concentration Response Assay.; type: functional
T1 sequence (O14939 whole entry): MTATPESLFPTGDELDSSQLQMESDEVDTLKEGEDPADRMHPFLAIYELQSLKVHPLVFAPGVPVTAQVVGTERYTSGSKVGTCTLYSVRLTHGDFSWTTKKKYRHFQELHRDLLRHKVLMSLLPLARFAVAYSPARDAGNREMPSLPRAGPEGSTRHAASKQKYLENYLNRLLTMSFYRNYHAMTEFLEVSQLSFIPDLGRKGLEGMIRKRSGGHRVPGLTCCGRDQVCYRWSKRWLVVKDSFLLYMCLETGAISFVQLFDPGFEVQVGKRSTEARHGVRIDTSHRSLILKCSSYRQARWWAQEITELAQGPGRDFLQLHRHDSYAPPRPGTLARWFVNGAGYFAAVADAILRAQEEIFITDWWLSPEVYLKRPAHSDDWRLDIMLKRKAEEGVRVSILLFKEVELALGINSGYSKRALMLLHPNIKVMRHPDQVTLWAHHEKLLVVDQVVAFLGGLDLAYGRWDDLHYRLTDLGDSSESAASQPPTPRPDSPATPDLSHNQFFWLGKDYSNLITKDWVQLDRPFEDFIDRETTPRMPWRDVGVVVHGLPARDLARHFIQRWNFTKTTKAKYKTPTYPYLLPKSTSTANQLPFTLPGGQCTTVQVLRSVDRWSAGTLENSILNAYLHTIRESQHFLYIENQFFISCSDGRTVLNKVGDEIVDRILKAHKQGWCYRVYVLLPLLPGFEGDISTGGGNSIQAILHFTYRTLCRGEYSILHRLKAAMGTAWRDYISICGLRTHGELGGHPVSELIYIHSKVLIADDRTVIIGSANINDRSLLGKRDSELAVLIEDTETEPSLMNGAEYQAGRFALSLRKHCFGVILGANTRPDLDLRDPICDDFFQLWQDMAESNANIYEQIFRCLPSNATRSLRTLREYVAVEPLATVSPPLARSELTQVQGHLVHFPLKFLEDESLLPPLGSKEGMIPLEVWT

Phospholipase D1 = Phospholipase D1 (Homo sapiens, UniProt Q13393); assay: PLD1 Cellular Concentration Response Study.; type: functional
Chain of Phospholipase D1 (Q13393 whole entry): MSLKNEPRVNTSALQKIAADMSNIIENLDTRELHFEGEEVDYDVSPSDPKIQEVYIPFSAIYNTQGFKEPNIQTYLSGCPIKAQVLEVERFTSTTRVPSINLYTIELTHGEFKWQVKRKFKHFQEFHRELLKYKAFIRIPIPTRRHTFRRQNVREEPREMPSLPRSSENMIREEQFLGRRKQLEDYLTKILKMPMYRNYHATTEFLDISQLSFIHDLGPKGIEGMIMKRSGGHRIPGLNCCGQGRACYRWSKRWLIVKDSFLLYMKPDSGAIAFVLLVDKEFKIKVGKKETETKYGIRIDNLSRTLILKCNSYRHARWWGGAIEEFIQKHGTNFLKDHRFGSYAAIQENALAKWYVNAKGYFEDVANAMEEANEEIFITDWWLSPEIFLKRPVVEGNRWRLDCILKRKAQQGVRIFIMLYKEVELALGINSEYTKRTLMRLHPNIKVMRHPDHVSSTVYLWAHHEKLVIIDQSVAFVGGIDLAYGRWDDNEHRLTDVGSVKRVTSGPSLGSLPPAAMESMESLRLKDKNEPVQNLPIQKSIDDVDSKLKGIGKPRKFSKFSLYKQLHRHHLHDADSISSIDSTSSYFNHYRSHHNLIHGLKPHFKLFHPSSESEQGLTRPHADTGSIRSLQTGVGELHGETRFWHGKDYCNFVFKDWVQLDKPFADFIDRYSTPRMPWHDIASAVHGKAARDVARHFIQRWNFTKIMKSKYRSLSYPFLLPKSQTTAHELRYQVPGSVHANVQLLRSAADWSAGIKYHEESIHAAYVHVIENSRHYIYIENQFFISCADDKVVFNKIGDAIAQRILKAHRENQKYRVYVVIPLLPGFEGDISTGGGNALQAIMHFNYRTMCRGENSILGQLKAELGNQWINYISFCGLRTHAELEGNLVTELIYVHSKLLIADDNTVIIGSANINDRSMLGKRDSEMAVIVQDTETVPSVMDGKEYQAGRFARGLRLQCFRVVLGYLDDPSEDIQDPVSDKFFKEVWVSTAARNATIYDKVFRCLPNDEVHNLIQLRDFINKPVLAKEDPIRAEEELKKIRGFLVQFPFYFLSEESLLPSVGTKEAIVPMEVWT

Phospholipase D2 [11] = target: T1, Phospholipase D2; assay: PLD2 Cellular Concentration Response Study.; type: functional
[12] = TB: CFU replicating Measured in Microorganism System Using Imaging - 7108-05_Inhibitor_Dose_DryPowder_Activity_Set2.; type: functional
[13] = growth inhibition of PfATP4-mutant resistant parasites – NITD609-resistant line, SYBR Green, dry powder, dose response (AID 1159571); type: functional, cell-based;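 further: parasites synchronized at ring stage by sorbitol before testing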
[14] = Plasmodium falciparum Dd2 Sybr green parasite growth Measured in Cell-Based and Microorganism Combination System Using Plate Reader - 2153-01_Inhibitor_Dose_DryPowder_Activity_Set3.; type: functional
[15] = growth inhibition of yeast DHODH-expressing 3D7 parasites – SYBR Green, dry powder samples, dose response (AID 1159570); type: functional, cell-based;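 further: parasite growth measured after 72 hours of compound exposure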
[16] = P. falciparum Dd2 growth inhibitors, dose response, SYBR Green, cherry-picked samples (AID 1159567); type: functional, cell-based
[17] = Dd2 malaria parasite growth inhibition potency – SYBR Green, dry powder samples, dose response (AID 1159566); type: functional, cell-based;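 further: potency for growth inhibition with lower SYBR green DNA signal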
[18] = toxicity to human HepG2 hepatoma cells – cell-based, plate reader, dry powder samples, cytotoxicity control, dose response (AID 1159569); type: functional;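 further: inhibitor potency with signal falling toward the positive control level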
[19] = antimalarial activity against Dd2 parasites – SYBR Green fluorescence, erythrocytes, dry powder, set 2, dose response (AID 1159574); type: functional, cell-based
[20] = cytotoxicity toward HCT116 cells – cell-based, CellTiter-Glo luminescence, IC50, dose response (AID 1117332); type: functional; conditions: HCT-116
[21] = SNU-C1 cell viability reduction, dose response, CellTiter-Glo luminescence (AID 1117323); type: functional, cell-based
[22] = rise of 2N DNA cells, HeLa – IC50, dose response (AID 1117349); type: functional, cell-based
[23] = RKO cell viability reduction, dose response, CellTiter-Glo luminescence (AID 1117322); type: functional
[24] = cytotoxicity toward HT-29 cells – cell-based, CellTiter-Glo luminescence, IC50, dose response (AID 1117330); type: functional
[25] = Reduced DLD-1 viability, concentration-response, CellTiter-Glo luminescence (AID 1117352); type: functional
[26] = CellTiter-Glo luminescence survival assay, SW480 colon tumor line, concentration-response curve, half-maximal inhibitory concentration (AID 1117338); type: functional
[27] = HCT116 cell viability decrease, GSK3B pretreatment – CellTiter-Glo, IC50, dose response (AID 1117339); type: functional; conditions: HCT-116
[28] = rise of 4N DNA cells, HeLa – IC50, dose response (AID 1117351); type: functional, cell-based
[29] = cytotoxicity toward Colo320 cells – cell-based, CellTiter-Glo luminescence, IC50, dose response (AID 1117334); type: functional; conditions: COLO 320

Chain of NAD-dependent protein deacylase sirtuin-5, mitochondrial (Q9NXA8 whole entry): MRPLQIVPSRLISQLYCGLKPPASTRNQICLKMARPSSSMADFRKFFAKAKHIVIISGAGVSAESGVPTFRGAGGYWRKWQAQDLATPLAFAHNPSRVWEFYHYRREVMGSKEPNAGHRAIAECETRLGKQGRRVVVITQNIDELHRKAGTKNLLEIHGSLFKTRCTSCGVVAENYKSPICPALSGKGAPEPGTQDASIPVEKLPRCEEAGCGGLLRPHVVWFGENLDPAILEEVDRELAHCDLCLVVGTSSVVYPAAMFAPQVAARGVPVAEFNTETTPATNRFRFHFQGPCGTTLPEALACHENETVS

In the case of `CC(C)CC#Cc1ccc2c(c1)O[C@@H](CN(C)S(=O)(=O)c1cccc(F)c1)[C@H](C)CN([C@H](C)CO)S2(=O)=O`, the AC50 [1] was 26.3 µM (active).
With `O=C1C(Nc2ccc(Cl)cc2)=C(N2CCCC2)C(=O)c2ccccc21` the AC50 [2] was 1.77 µM (active), the AC50 [3] was 39.2 µM (active) and the AC50 [4] was 50.9 µM (active). The AC50 [5] was 41.5 µM (active), the AC50 [6] was 31.6 µM (active) and the AC50 [7] was 39.2 µM (active). The AC50 [8] was 3.48 µM (active) and the AC50 [9] was > 70 µM (inactive).
In the case of `O=C(NCCN1CCC2(CC1)C(=O)NCN2Cc1cccnc1)c1ccc2ccccc2c1`, the IC50 (Phospholipase D2 [10]) was 8.7 µM (active), the IC50 (Phospholipase D1) was 20 µM (active) and the IC50 (Phospholipase D2 [11]) was 0.46 µM (active).
For `Cn1c(NC(=O)c2ccccc2)nc2ncccc21`, the AbsAC90 [12] was 724.55 µM.
For `COc1ccc(CN2C[C@@H](C)[C@H](OC)CN(C)C(=O)c3ccc(NC(=O)c4nc5ccccc5s4)cc3OC[C@H]2C)cc1`, the AC50 [13] was 1.25 µM (active), the AC50 [14] was 1.06 µM (active) and the AC50 [15] was 3.16 µM (active). For the same molecule, the AC50 [16] was 0.854 µM (active), the AC50 [17] was 0.643 µM (active) and the AC50 [18] was > 92 µM (inactive).
In the case of `COc1ccc(S(=O)(=O)N(C)C[C@H]2OCc3ccccc3-c3c(n(C)c4ccccc34)C(=O)N([C@@H](C)CO)C[C@@H]2C)cc1`, the AC50 [19] was 1.47 µM (active).
With `O=C(O)CCc1nc2ccccc2[nH]1` [PROCODAZOLE] the IC50 [20] was > 20 µM (inactive), the IC50 [21] was > 20 µM (inactive) and the IC50 [22] was > 10 µM (inactive). For the same molecule, the IC50 [23] was > 20 µM (inactive), the IC50 [24] was > 20 µM (inactive) and the IC50 [25] was 2.42 µM (active). For the same molecule, the IC50 [26] was > 20 µM (inactive), the IC50 [27] was 2.2 µM (active) and the IC50 [28] was > 10 µM (inactive). For the same molecule, the IC50 [29] was > 20 µM (inactive).

— ChEMBL document CHEMBL1201862, “PubChem BioAssay data set” (2004)
